The results in this text go back to patent publication US20230189806A1, “FUNGICIDAL COMBINATIONS” (UPL Corporation Limited, priority 2021, published 2023).

Assay [1] relates to S. sclerotiorum. Description: Paper towel roll method, incidence of S. sclerotiorum in inoculated soybean seeds. Type of assay: in vivo, Sclerotinia sclerotiorum. As to conditions: % control of S. sclerotiorum, 14 days at 25° C. Here is the method: Colby Calculation: This effectiveness of all treatments as measured by percent reduction in the target phytopathogen growth, was also evaluated according to Colby's equation as below. E=X+Y−XY/100 Colby's equation If the actual/observed anti-phytopathogenic efficacy of the ipconazole and thiabendazole combination against S. sclerotiorum exceeds the calculated value, then the activity of the combination is super additive, i.e., a synergistic effect exists. In this case, the efficacy which was actually observed must be greater than the value for the expected efficacy (E) calculated from the abovementioned formula. Methodology: To evaluate the incidence of the pathogen S. sclerotiorum in soybean seeds, the laboratory paper towel roll method was used. A paper towel on a flat surface was placed and moistened with water until it was thoroughly damp. A sample size of a total of 100 soybean seeds in rows were placed on the towel. The seeds were inoculated with the fungal pathogen. The seeds were pre-treated as per the treatments mentioned in the Table 5. A second towel was moistened and placed onto the first paper towel, leaving the seeds sandwiched between the two towels. It was observed that air space in between the two towels was maintained, if not, excessive water should be removed. The two towels were rolled with the seeds in-between and place in a sealed container that retained the moisture. The paper rolls were placed upright and incubated for 14 days in an incubator at 25° C. and at a 12 h photoperiod in plastic bags, which is used to maintain humidity during the incubation. For each treatment, 400 seeds were analyzed, 8 repetitions with 50 seeds each repetition.

Assay [2] deals with Rhizoctonia solani. As to the kind of experiment: Seed treatment bio-efficacy against Rhizoctonia solani in inoculated soybean seeds. In kind it is in vivo. Particulars: % control of Rhizoctonia solani. Here is the method: This effectiveness of all treatments as measured by percent reduction in the target phytopathogen growth, was also evaluated according to Colby's equation as below. E=X+Y−XY/100 Colby's equation If the actual/observed anti-phytopathogenic efficacy of the ipconazole and thiabendazole combination against Rhizoctonia solani growth exceeds the calculated value, then the activity of the combination is super additive, i.e., a synergistic effect exists. In this case, the efficacy which was actually observed must be greater than the value for the expected efficacy (E) calculated from the abovementioned formula. Methodology: Experiments were carried out to evaluate the bio-efficacy of combinations according to the invention of the present disclosure consisting of ipconazole and thiabendazole against Rhizoctonia solani fungi in soybean seeds. The seeds were inoculated with Rhizoctonia solani. The fungicides were tank mixed and applied as seed treatment as described in table 4 below. Spraying volume was 5 ml/kg.

The structures appear in SMILES notation.

On to `CC(C)C1CCC(Cc2ccc(Cl)cc2)C1(O)Cn1cncn1` (centres unmarked) [Ipconazole], for which the “Observed efficacy of demethylation inhibitor fungicide (%)” value is recorded as 21.3% in assay [1] (ipconazole 5.6 g a.i./100 kg seed), 6.7% in assay [1] (ipconazole 7.78 g a.i./100 kg seed), 49.05% in assay [2] (ipconazole 2 g a.i./100 kg seed) and 67.92% in assay [2] (ipconazole 3 g a.i./100 kg seed).
Take `c1ccc2[nH]c(-c3cscn3)nc2c1` [Thiabendazole]: the “Observed efficacy of β-tubulin assembly inhibitor fungicide (%)” value amounted to 14.6% in assay [1] (thiabendazole 30.9 g a.i./100 kg seed), 67.4% in assay [1] (thiabendazole 61.9 g a.i./100 kg seed), 43.39% in assay [2] (thiabendazole 12 g a.i./100 kg seeds) and 56.60% in assay [2] (thiabendazole 18 g a.i./100 kg seeds).
